Here are results for one compound from US20190144368A1, “Compounds and compositions for biofilm prevention” (INHIBIO AS, priority 2016, published 2019).

Data set [1] in a line: NMR of cyclohexane-1,3-dione in aqueous solution (keto-enol tautomerism). It counts as physicochemical. To be noted: NMR-data. The text has this: In one embodiment, the compounds of the composition are able to undergo keto-enol tautomerism. Particularly 1,3-cyclodions, such as 1,3-cyclohexanediones, particularly such diones wherein neither or maximum one substituents are present in the C-2 position, have been found favourable as they can undergo keto-enol tautomerism. NMR-data of cyclohexane-1,3-dione support that in aqueous solution this compound exists in a highly enolised form where electrons are delocalised between the C-1-oxygen/C-1, C-2 and C-3/C-3-oxygen thereby rendering the C-2 methylene protons relatively acidic. […] It is believed that the acidity of the C-2 protons affect the solubility of the compound, providing a higher solubility than e.g. similar 1,4-carbocyclic compounds.

Another data set concerns Salmonella (one strain). Description: Effect of increased temperature on 1,3-cyclohexanedione: biofilm formation after heating the solution. It counts as cell-based. The settings on record: 72 hours at 20 °C. The method, then: The experiment was performed using 1,3-cyclohexanedione at a concentration of 1 mg/ml. One strain of Salmonella was used in this study. All strains were stored at −80° C. in BHI (Difco, BD, Franklin Lakes, N.J., USA) supplemented […] with 15% glycerine (Merck KGaA, Darmstadt, Germany) and were recovered on blood agar at 37.0±1.0° C. The bacterial culture was transferred into LB broth and was incubated statically overnight at 37.0±1.0° C. to obtain an overnight working culture. 1,3-cyclohexanedione was diluted in LB wo/NaCl at a concentration of 1 mg/ml and divided into 4 tubes. The tubes were heated, for two minutes, to 80° C., 90° C., 100° C. and the last tube was not heated and included as a control. 100 μl from each tube was added to a sterile 96-wells polystyrene microtiter plates (Nunc, Nuncleon, Roskilde, Denmark) together with 30 μl bacterial culture or 30 μl LB^wo/NaCl in the case of the blank controls. The plates were incubated for 72 hours at 20° C. The plate was emptied and washed twice using 200 μl tap water in each well each time. This was followed by the addition of 140 μl 1% Crystal violet to each well and, after 30 minutes, the plate was again emptied and washed 3 times using 200 μl tap water. 140 μl etanol:acetone 70:30 was added and OD595 was measured after 10 minutes. For each strain, the result was calculated by subtracting the median OD595 of the three parallels of the control (test broth only) from the median OD595 of the three parallels of sample. At least two experiments were performed and the average was estimated.

In data set [2] the test system is Gram positive bacteria (three Staphylococcus aureus strains). Kind of data set: Biofilm formation in polystyrene microtiter plates (crystal violet, OD595), Gram positive bacteria. It counts as cell-based. The settings on record: one day at 37 °C. The method, then: All experiments were performed by using sterile 96-wells polystyrene microtiter plates (Nunc, Nuncleon, Roskilde, Denmark) under conditions promoting biofilm formation by the different bacterial genera. The Inhibio compound preparations of the invention; 1,3-cyclohexanedione, 1,4-cyclohexanedione, cyclopentanone, 5-ethylcyclohexane-1,3-dione and 5-methyl-1,3 cyclohexanedione 98% were solved directly in Tryptic Soy Broth (TSB) 1+1 or Liquid Microbiology Broth (LB) broth without NaCl (LB^wo/NaCl) to obtain the test concentrations, i.e. from 1 mg/ml to 10 mg/ml.
Three Staphylococcus aureus strains of animal origin were used in this study. All strains were stored at −80° C. in Brain Heart Infusion Broth (BHI) (Difco, BD, Franklin Lakes, N.J., USA) supplemented with 15% glycerine (Merck KGaA, Darmstadt, Germany) and were recovered on blood agar at 37.0±1.0° C. The bacterial cultures were then transferred into TSB and were incubated statically overnight at 37.0±1.0° C. to obtain an overnight working culture. A total of 2 μl of this suspension was transferred to each 96 wells of polystyrene microtiter plates (Nunc, Nuncleon, Roskilde, Denmark) containing 198 μl TSB 1+1 with dissolved Inhibio compounds in the following concentrations: 0 mg/ml, 1 mg/ml and 10 mg/ml for 1,3-cyclohexanedione; 0 mg/ml and 10 mg/ml for 1,4-cyclohexanedione; and 0 mg/ml, 1 mg/ml, 2 mg/ml and 10 mg/ml for 5-ethylcyclohexane-1,3-dione and 5-Methyl-1,3-cyclohexanedione in the total amount of broth. Three parallels of each strain were used and the microtiter plates were incubated statically for one day, at 37±1.0° C. After incubation, OD595 was measured in a microplate photometer (Multiscan EX; Thermo Fisher Scientific Inc, Waltham, Mass., USA) before the plates were gently washed three times with 290 μl tap water. The plates were dried in room temperature before addition of 220 μl 1% crystal violet (Sigma-Aldrich, St. Louis, Mo., USA). After 30 minutes incubation in room temperature, the plates were washed three times with tap water before the addition of 220 μl ethanol:acetone (70:30 w:w) to dissolve the bound dye. The plates were incubated for 10 minutes in room temperature before OD595 was measured after the bound dye was dissolved using ethanol:acetone. For each strain, the result was calculated by subtracting the median OD595 of the three parallels of the control (test broth only) from the median OD595 of the three parallels of sample. Further, the average result of all three Gram positive strains included in the study were calculated. Three independent experiments were performed and the average was evaluated.

Consider `O=C1CCCC(=O)C1` [1,3-cyclohexanedione], for which, in data set [1], the stability of tautomers entry was “stable at least over one day”. Also, the “decrease in biofilm formation compared to the control” value is recorded as 38% with Salmonella (one strain) (1 mg/ml solution heated to 80 °C for two minutes), 40% in the data set on Salmonella (one strain) (1 mg/ml solution heated to 90 °C for two minutes), 28% in the data set on Salmonella (one strain) (1 mg/ml solution heated to 100 °C for two minutes) and 46% with Salmonella (one strain) (1 mg/ml unheated solution). Further, the “decrease in biofilm formation, percentage of the control” value in data set [2] (1 mg/ml) stood at 74%; in data set [2] (10 mg/ml) it was 98%.
